Experimental data as given in ChEMBL document CHEMBL5346971, “Discovery of the First Irreversible HDAC6 Isoform Selective Inhibitor with Potent Anti-Multiple Myeloma Activity” (J Med Chem, 2023).
Active and inactive are the calls of the source. No cut-off for these calls is given here.

Tests used:
[1] = Toxicity in NCG mouse xenografted with human RPMI-8226 cells assessed as body weight loss at 50 ug administered intratumorally every 2 days; conditions: in vivo, other, 48 h, route it(Intratumoral), dose 50 µg
[2] = Toxicity in NCG mouse xenografted with human RPMI-8226 cells assessed as weakness at 50 ug administered intratumorally every 2 days; conditions: in vivo, other, 48 h, route it(Intratumoral), dose 50 µg
MM1.S = test: Antiproliferative activity against human MM1.S cells assessed as inhibition of cell proliferation incubated for 48 hrs by CCK8 assay; type: functional, cell-based
[3] = Toxicity in NCG mouse xenografted with human RPMI-8226 cells assessed as animal's death at 50 ug administered intratumorally every 2 days; conditions: in vivo, other, 48 h, route it(Intratumoral), dose 50 µg
RPMI-8226 [4] = test: Induction of apoptosis in human RPMI-8226 cells assessed as proportion of viable cells at 0.5 uM incubated for 24 hrs by AnnexinV-FITC/PI staining based flow cytometry (reference value: 84.71%); type: functional, cell-based
RPMI-8226 [5] = test: Induction of apoptosis in human RPMI-8226 cells assessed as proportion of early apoptotic cells at 2.5 uM incubated for 24 hrs by AnnexinV-FITC/PI staining based flow cytometry (reference value: 10.63%); type: functional, cell-based
U-266 = test: Antiproliferative activity against human U-266 cells assessed as inhibition of cell proliferation incubated for 48 hrs by CCK8 assay; type: functional, cell-based; conditions: U-266, 48 h
RPMI-8226 [6] = test: Induction of apoptosis in human RPMI-8226 cells assessed as proportion of early apoptotic cells at 0.5 uM incubated for 24 hrs by AnnexinV-FITC/PI staining based flow cytometry (reference value: 10.63%); type: functional, cell-based
RPMI-8226 [7] = test: Induction of apoptosis in human RPMI-8226 cells assessed as proportion of necrotic cells at 2.5 uM incubated for 24 hrs by AnnexinV-FITC/PI staining based flow cytometry (reference value: 0.49%); type: functional, cell-based
RPMI-8226 [8] = test: Induction of apoptosis in human RPMI-8226 cells assessed as proportion of viable cells at 2.5 uM incubated for 24 hrs by AnnexinV-FITC/PI staining based flow cytometry (reference value: 84.71%); type: functional, cell-based
RPMI-8226 [9] = test: Induction of cell cycle arrest in human RPMI-8226 cells assessed as proportion of cells at G1 phase at 2.5 uM incubated for 24 hrs by PI staining based flow cytometry (reference value: 33.5%); type: functional
RPMI-8226 [10] = test: Induction of cell cycle arrest in human RPMI-8226 cells assessed as proportion of cells at S phase at 2.5 uM incubated for 24 hrs by PI staining based flow cytometry (reference value: 46.7%); type: functional
RPMI-8226 [11] = test: Antiproliferative activity against human RPMI-8226 cells assessed as inhibition of cell proliferation incubated for 48 hrs by CCK8 assay; type: functional, cell-based; conditions: RPMI-8226, 48 h
RPMI-8226 [12] = test: Induction of apoptosis in human RPMI-8226 cells assessed as proportion of late apoptotic cells at 2.5 uM incubated for 24 hrs by AnnexinV-FITC/PI staining based flow cytometry (reference value: 4.18%); type: functional, cell-based
RPMI-8226 [13] = test: Induction of apoptosis in human RPMI-8226 cells assessed as proportion of late apoptotic cells at 0.5 uM incubated for 24 hrs by AnnexinV-FITC/PI staining based flow cytometry (reference value: 4.18%); type: functional, cell-based
RPMI-8226 [14] = test: Antitumor activity against human RPMI-8226 cells xenografted in NCG mouse assessed as T/C ratio at 50 ug administered intratumorally every 2 days by vernier caliper analysis; type: functional; conditions: dose 50 µg; route it(Intratumoral)
RPMI-8226 [15] = test: Induction of apoptosis in human RPMI-8226 cells assessed as proportion of necrotic cells at 0.5 uM incubated for 24 hrs by AnnexinV-FITC/PI staining based flow cytometry (reference value: 0.49%); type: functional, cell-based
RPMI-8226 [16] = test: Induction of cell cycle arrest in human RPMI-8226 cells assessed as proportion of cells at G2/M phase at 2.5 uM incubated for 24 hrs by PI staining based flow cytometry (reference value: 19.8%); type: functional
RPMI-8226 [17] = test: Antitumor activity against human RPMI-8226 cells xenografted in NCG mouse assessed as tumor growth inhibition at 50 ug administered intratumorally every 2 days by vernier caliper analysis; type: functional; conditions: dose 50 µg; route it(Intratumoral)
[18] = Cytotoxicity against human L02 cells assessed as inhibition of cell proliferation incubated for 48 hrs by CCK8 assay; type: toxicity, cell-based

In the case of O=C(CCCCCCNC(=O)c1cnc(N(c2ccccc2)c2ccccc2Cl)nc1)NO [CITARINOSTAT], the Activity [1] is reported as “Non-Toxic”, the Activity [2] is reported as “Toxic” and the IC50 (MM1.S) is reported as 2 µM. For the same molecule, the Activity [3] was “Toxic”, the Activity (RPMI-8226 [4]) was “Active” and the Activity (RPMI-8226 [5]) was “Active”. For the same molecule, the IC50 (U-266) was 4.3 µM, the Activity (RPMI-8226 [6]) was “Active” and the Activity (RPMI-8226 [7]) was “Active”. The Activity (RPMI-8226 [8]) was “Active”, the Activity (RPMI-8226 [9]) was 32.7% and the Activity (RPMI-8226 [10]) was 44.7%. For the same molecule, the IC50 (RPMI-8226 [11]) was 3.5 µM, the Activity (RPMI-8226 [12]) was “Active” and the Activity (RPMI-8226 [13]) was “Active”. For the same molecule, the T/C (RPMI-8226 [14]) was 61%, the Activity (RPMI-8226 [15]) was “Active” and the Activity (RPMI-8226 [16]) was 22.6%. The TGI (RPMI-8226 [17]) was 46% and the IC50 at 48 h [18] was 15.2 µM.
